Test results taken from US10058550B2, “Methods of treating heart failure” (priority 2015, dated 2018).

Biological target: human APJ receptor (Homo sapiens (Human), UniProt P35414)
Test: biochemical
Type: biochemical
Settings: read-out: Activity hAPJ SPA EC50 IP
Summary of the method: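 Membranes from CHO cells stably expressing cloned human APJ were incubated with WGA SPA beads in 20 mM HEPES pH 7.5, 5 mM MgCl2, 0.1% BSA, 200 mM NaCl and 3 μM GDP. Reaction started with 0.2 nM [35S]GTPγS ± ligands, 90 min at RT. EC50 obtained by non-linear regression as mean of independent experiments.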

Sequence of human APJ receptor (P35414 whole entry): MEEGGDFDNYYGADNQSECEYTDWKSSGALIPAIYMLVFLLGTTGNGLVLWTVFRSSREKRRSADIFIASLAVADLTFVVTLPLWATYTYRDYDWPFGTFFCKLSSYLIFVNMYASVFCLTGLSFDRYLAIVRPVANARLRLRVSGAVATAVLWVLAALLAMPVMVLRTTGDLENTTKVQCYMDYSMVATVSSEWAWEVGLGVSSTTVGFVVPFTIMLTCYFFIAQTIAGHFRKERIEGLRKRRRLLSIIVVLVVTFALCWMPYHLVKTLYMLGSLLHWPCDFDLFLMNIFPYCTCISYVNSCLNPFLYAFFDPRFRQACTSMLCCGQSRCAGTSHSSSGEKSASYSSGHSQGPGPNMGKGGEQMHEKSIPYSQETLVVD

Row | SMILES | EC50
1 | COc1cccc(OC)c1-n1c(NS(=O)(=O)CCc2ccc(F)cc2C#N)nnc1-c1cncc(Cl)c1 [Example 181.0, N-(5-(5-chloro-3-pyridinyl)-4-(2,6-dimethoxyphenyl)-4H-1,2,4-triazol-3-yl)-2-(2-cyano-4-fluorophenyl)ethanesulfonamide] | 12 nM
2 | COc1cccc(OC)c1-n1c(NS(=O)(=O)[C@@H](C)[C@H](C)c2ncc(F)cn2)nnc1-c1cccc(OCC(F)(F)F)n1 [Example 185.0, (2S,3R)-N-(4-(2,6-dimethoxyphenyl)-5-(6-(2,2,2-trifluoroethoxy)pyridin-2-yl)-4H-1,2,4-triazol-3-yl)-3-(5-fluoropyrimidin-2-yl)butane-2-sulfonamide] | 0.12 nM
3 | COc1cccc(OC)c1-n1c(NS(=O)(=O)[C@@H](C)[C@H](C)c2ncc(F)cn2)nnc1-c1cccc(OCCO)n1 [Example 186.0, (2S,3R)-N-(4-(2,6-dimethoxyphenyl)-5-(6-(2-hydroxyethoxy)pyridin-2-yl)-4H-1,2,4-triazol-3-yl)-3-(5-fluoropyrimidin-2-yl)butane-2-sulfonamide] | 0.12 nM
4 | COc1cccc(OC)c1-n1c(NS(=O)(=O)[C@@H](C)[C@H](OC)c2ncc(C)cn2)nnc1-c1cccc(OCC(F)(F)F)n1 [Example 187.0, (1R,2S)-N-(4-(2,6-dimethoxyphenyl)-5-(6-(2,2,2-trifluoroethoxy)pyridin-2-yl)-4H-1,2,4-triazol-3-yl)-1-methoxy-1-(5-methylpyrimidin-2-yl)propane-2-sulfonamide] | 0.14 nM
5 | COc1cccc(OC)c1-n1c(NS(=O)(=O)[C@@H](C)[C@H](OC)c2ncc(C)cn2)nnc1-c1cccc(OCCO)n1 [Example 188.0, (1R,2S)-N-(4-(2,6-dimethoxyphenyl)-5-(6-(2-hydroxyethoxy)pyridin-2-yl)-4H-1,2,4-triazol-3-yl)-1-methoxy-1-(5-methylpyrimidin-2-yl)propane-2-sulfonamide] | 0.96 nM
6 | COc1cccc(OC)c1-n1c(NS(=O)(=O)[C@@H](C)[C@H](C)c2ncc(F)cn2)nnc1-c1cccc(OCC(C)(C)O)n1 [Example 192.0, (2S,3R)-N-(4-(2,6-dimethoxyphenyl)-5-(6-(2-hydroxy-2-methylpropoxy)pyridin-2-yl)-4H-1,2,4-triazol-3-yl)-3-(5-fluoropyrimidin-2-yl)butane-2-sulfonamide] | 260 nM
7 | COc1cccc(OC)c1-n1c(NS(=O)(=O)[C@@H](C)[C@H](OC)c2ncc(C)cn2)nnc1-c1cccc(OCC(C)(C)O)n1 [Example 193.0, (1R,2S)-N-(4-(2,6-dimethoxyphenyl)-5-(6-(2-hydroxy-2-methylpropoxy)pyridin-2-yl)-4H-1,2,4-triazol-3-yl)-1-methoxy-1-(5-methylpyrimidin-2-yl)propane-2-sulfonamide] | 61 nM
8 | COc1cccc(OC)c1-n1c(NS(=O)(=O)[C@@H](C)[C@H](C)c2ncc(F)cn2)nnc1-c1cccc(OCC(O)(C(F)(F)F)C(F)(F)F)n1 [Example 194.0, (2S,3R)-N-(4-(2,6-dimethoxyphenyl)-5-(6-(3,3,3-trifluoro-2-hydroxy-2-(trifluoromethyl)propoxy)pyridin-2-yl)-4H-1,2,4-triazol-3-yl)-3-(5-fluoropyrimidin-2-yl)butane-2-sulfonamide] | 36 nM
9 | CNc1cccc(-c2nnc(NS(=O)(=O)[C@@H](C)[C@H](OC)c3ncc(C)cn3)n2-c2c(OC)cccc2OC)n1 [Example 195.0, (1R,2S)-N-(4-(2,6-dimethoxyphenyl)-5-(6-(methylamino)pyridin-2-yl)-4H-1,2,4-triazol-3-yl)-1-methoxy-1-(5-methylpyrimidin-2-yl)propane-2-sulfonamide] | 0.35 nM
10 | COCCOc1cccc(-c2nnc(NS(=O)(=O)[C@@H](C)[C@H](OC)c3ncc(C)cn3)n2-c2c(OC)cccc2OC)n1 [Example 196.0, (1R,2S)-N-(4-(2,6-dimethoxyphenyl)-5-(6-(2-methoxyethoxy)pyridin-2-yl)-4H-1,2,4-triazol-3-yl)-1-methoxy-1-(5-methylpyrimidin-2-yl)propane-2-sulfonamide] | 3.4 nM
11 | COc1cccc(OC)c1-n1c(NS(=O)(=O)[C@@H](C)[C@H](OC)c2ncc(C)cn2)nnc1-c1cccc(N(C)C)n1 [Example 197.0, (1R,2S)-N-(4-(2,6-dimethoxyphenyl)-5-(6-(dimethylamino)pyridin-2-yl)-4H-1,2,4-triazol-3-yl)-1-methoxy-1-(5-methylpyrimidin-2-yl)propane-2-sulfonamide] | 0.21 nM
12 | COc1cccc(OC)c1-n1c(NS(=O)(=O)[C@@H](C)[C@H](C)c2cnc(C)cn2)nnc1-c1cccnc1 [Example 198.0, (2S,3R)-N-(4-(2,6-dimethoxyphenyl)-5-(pyridin-3-yl)-4H-1,2,4-triazol-3-yl)-3-(5-methylpyrazin-2-yl)butane-2-sulfonamide] | 1.1 nM
13 | COc1cccc(-c2nnc(NS(=O)(=O)CCc3ccc(F)cc3C#N)n2-c2c(OC)cccc2OC)n1 [Example 200.0, 2-(2-cyano-4-fluorophenyl)-N-(4-(2,6-dimethoxyphenyl)-5-(6-methoxy-2-pyridinyl)-4H-1,2,4-triazol-3-yl)ethanesulfonamide] | 0.57 nM
14 | COc1cccc(OC)c1-n1c(NS(=O)(=O)CCN2C(=O)N(C)CC[C@@H]2C)nnc1-c1cncc(C)c1 [Example 201.0, N-(4-(2,6-dimethoxyphenyl)-5-(5-methyl-3-pyridinyl)-4H-1,2,4-triazol-3-yl)-2-((6S)-3,6-dimethyl-2-oxotetrahydro-1(2H)-pyrimidinyl)ethanesulfonamide] | 2.5 nM
15 | COc1cccc(-c2nnc(NS(=O)(=O)CCc3ccc(F)cc3C#N)n2-c2c(OC)ncnc2OC)n1 [Example 204.0, 2-(2-cyano-4-fluorophenyl)-N-(4-(4,6-dimethoxy-5-pyrimidinyl)-5-(6-methoxy-2-pyridinyl)-4H-1,2,4-triazol-3-yl)ethanesulfonamide] | 1.5 nM
16 | CCNC(=O)c1cccc(-c2nnc(NS(=O)(=O)[C@@H](C)Cc3ncc(F)cn3)n2-c2c(OC)cccc2OC)n1 [Example 229.0, 6-(4-(2,6-dimethoxyphenyl)-5-((((1S)-2-(5-fluoro-2-pyrimidinyl)-1-methylethyl)sulfonyl)amino)-4H-1,2,4-triazol-3-yl)-N-ethyl-2-pyridinecarboxamide, 6-(4-(2,6-dimethoxyphenyl)-5-((((1R)-2-(5-fluoro-2-pyrimidinyl)-1-methylethyl)sulfonyl)amino)-4H-1,2,4-triazol-3-yl)-N-ethyl-2-pyridinecarboxamide] | 6.3 nM
17 | COc1cccc(OC)c1-n1c(NS(=O)(=O)[C@@H](C)[C@H](OC)c2ncccn2)nnc1-c1cncc(C)c1 [Example 250.0, (1R,2S)-N-(4-(2,6-dimethoxyphenyl)-5-(5-methyl-3-pyridinyl)-4H-1,2,4-triazol-3-yl)-1-methoxy-1-(2-pyrimidinyl)-2-propanesulfonamide] | 2.8 nM
18 | COc1cccc(-c2nnc(NS(=O)(=O)[C@@H](C)[C@H](C)c3ncc(C)cn3)n2-c2c(OC)cccc2OC)n1 [Example 313.0, (2S,3R)—N-(4-(2,6-dimethoxyphenyl)-5-(6-methoxy-2-pyridinyl)-4H-1,2,4-triazol-3-yl)-3-(5-methyl-2-pyrimidinyl)-2-butanesulfonamide] | 0.3 nM
19 | COc1cccc(-c2nnc(NS(=O)(=O)[C@H](C)[C@@H](C)c3ncc(C)cn3)n2-c2c(OC)cccc2OC)n1 [Example 314.0, (2R,3S)—N-(4-(2,6-dimethoxyphenyl)-5-(6-methoxy-2-pyridinyl)-4H-1,2,4-triazol-3-yl)-3-(5-methyl-2-pyrimidinyl)-2-butanesulfonamide] | 3.4 nM
20 | COc1cccc(OC)c1-n1c(NS(=O)(=O)CCc2ccc(Cl)cc2)nnc1-c1ccccn1 [Example 368.0, 2-(4-chlorophenyl)-N-(4-(2,6-dimethoxyphenyl)-5-(2-pyridinyl)-4H-1,2,4-triazol-3-yl)ethanesulfonamide] | 59 nM
21 | COc1cccc(OC)c1-n1c(NS(=O)(=O)CCc2ccc(Cl)cc2)nnc1-c1cccnc1 [Example 369.0, 2-(4-chlorophenyl)-N-(4-(2,6-dimethoxyphenyl)-5-(3-pyridinyl)-4H-1,2,4-triazol-3-yl)ethanesulfonamide] | 16 nM
22 | COc1cccc(OC)c1-n1c(NS(=O)(=O)N[C@@H](C)c2ncc(F)cn2)nnc1-c1cncc(C)c1 [Example 392.0] | 48 nM
23 | CCO[C@H](c1ncc(Cl)cn1)[C@H](C)S(=O)(=O)Nc1nnc(-c2cncc(C)c2)n1-c1c(OC)cccc1OC [Example 429.0, (1R,2S)-1-(5-chloropyrimidin-2-yl)-N-(4-(2,6-dimethoxyphenyl)-5-(5-methylpyridin-3-yl)-4H-1,2,4-triazol-3-yl)-1-ethoxypropane-2-sulfonamide] | 0.27 nM
24 | COc1cccc(OC)c1-n1c(NS(=O)(=O)[C@@H](C)[C@H](C)c2ncc(F)cn2)nnc1-c1cccc(C)n1 [Example 453.0, (2S,3R)—N-(4-(2,6-dimethoxyphenyl)-5-(6-methyl-2-pyridinyl)-4H-1,2,4-triazol-3-yl)-3-(5-fluoro-2-pyrimidinyl)-2-butanesulfonamide] | 0.6 nM
25 | COc1cccc(OC)c1-n1c(NS(=O)(=O)[C@@H](C)[C@H](C)c2ncc(F)cn2)nnc1-c1cccc(Cl)n1 [Example 454.0, (2S,3R)—N-(5-(6-chloro-2-pyridinyl)-4-(2,6-dimethoxyphenyl)-4H-1,2,4-triazol-3-yl)-3-(5-fluoro-2-pyrimidinyl)-2-butanesulfonamide] | 0.84 nM
26 | COc1cccc(OC)c1-n1c(NS(=O)(=O)[C@@H](C)[C@H](C)c2ncc(F)cn2)nnc1-c1cccc(-c2ccccc2)n1 [Example 455.0, (2S,3R)—N-(4-(2,6-dimethoxyphenyl)-5-(6-phenyl-2-pyridinyl)-4H-1,2,4-triazol-3-yl)-3-(5-fluoro-2-pyrimidinyl)-2-butanesulfonamide] | 4.9 nM
27 | COc1cccc(OC)c1-n1c(NS(=O)(=O)CCN2C(=O)N(C)CC[C@H]2C)nnc1-c1cncc(C)c1 [Example 460.0, N-(4-(2,6-dimethoxyphenyl)-5-(5-methyl-3-pyridinyl)-4H-1,2,4-triazol-3-yl)-2-((6R)-3,6-dimethyl-2-oxotetrahydro-1(2H)-pyrimidinyl)ethanesulfonamide] | 9.7 nM
